Experimental data as given in publication PMC10662218 (RSC Advances, 2023).

Target: Human insulin (monomeric insulin) (Homo sapiens, UniProt P01308)
Test: intrinsic Tyr fluorescence quenching
Type: binding
Conditions: insulin 25 μM, compound 2-24 μM, double-log

Sequence of Human insulin (monomeric insulin) (P01308 25-54): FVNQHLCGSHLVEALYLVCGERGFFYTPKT
Sequence of Human insulin (monomeric insulin) (P01308 90-110): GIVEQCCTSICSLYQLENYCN

Row | K b, 10^4 (M^-1) / 293 K | Structure (SMILES)
1 | 2.18 × 10^4 M^-1 | COc1cccc(/C=N/C(C)(C)C)c1O [3a, (E)-2-((tert-butylimino)methyl)-6-methoxyphenol]
2 | 17.09 × 10^4 M^-1 | COc1cccc(/C=N/C(CO)(CO)CO)c1O [3b, (E)-2-((2-hydroxy-3-methoxybenzylidene)amino)-2-(hydroxymethyl)propane-1,3-diol]
